The results in this text go back to publication PMC9571547, “New Triazinoindole Bearing Benzimidazole/Benzoxazole Hybrids Analogs as Potent Inhibitors of Urease: Synthesis, In Vitro Analysis and Molecular Docking Studies” (Molecules, 2022).

SMILES strings stand for the structures. Like-named read-outs stand apart in the source and are kept apart here.

The test concerns the target urease enzyme (Canavalia ensiformis, UniProt P07374). Description: biochemical. The class given is biochemical. As to conditions: for potency relative to standard thiourea drug (fold): urease inhibition, compared to thiourea. The method, then: First, 5 μL of the test compounds were added to the reaction mixtures, which also contained 25 μL of enzyme solution and 55 μL of buffer containing 100 mM urea, then the mixtures were incubated in 96-well plates at 30 °C for 15 min (0.5 mM concentration). For the kinetics analysis, urea concentrations were changed from 2 to 24 mM. Urease activity was determined by measuring ammonia generation using Weatherburn’s indophenol method. In a nutshell, each well received 45 μL of the 0.005% w/v sodium nitroprusside, phenol reagent 1% w/v phenol, and 70 μL of the alkali reagent—0.1% active chloride NaOCl and 0.5% w/v NaOH. Using a microplate reader, rising absorbance at 630 nm was observed after 50 min (Molecular Devices, San Jose, CA, USA). In a final volume of 200 μL, each reaction was carried out three times. Using the software SoftMaxPro, the results (change in absorbance per minute) were processed (Molecular Devices, San Jose, CA, USA). The experiments were run at pH 6.8 throughout. The formula 100-(ODtest well/ODcontrol) 100 was used to calculate the percentage of inhibition.

Sequence of urease enzyme (P07374 whole entry, looked up): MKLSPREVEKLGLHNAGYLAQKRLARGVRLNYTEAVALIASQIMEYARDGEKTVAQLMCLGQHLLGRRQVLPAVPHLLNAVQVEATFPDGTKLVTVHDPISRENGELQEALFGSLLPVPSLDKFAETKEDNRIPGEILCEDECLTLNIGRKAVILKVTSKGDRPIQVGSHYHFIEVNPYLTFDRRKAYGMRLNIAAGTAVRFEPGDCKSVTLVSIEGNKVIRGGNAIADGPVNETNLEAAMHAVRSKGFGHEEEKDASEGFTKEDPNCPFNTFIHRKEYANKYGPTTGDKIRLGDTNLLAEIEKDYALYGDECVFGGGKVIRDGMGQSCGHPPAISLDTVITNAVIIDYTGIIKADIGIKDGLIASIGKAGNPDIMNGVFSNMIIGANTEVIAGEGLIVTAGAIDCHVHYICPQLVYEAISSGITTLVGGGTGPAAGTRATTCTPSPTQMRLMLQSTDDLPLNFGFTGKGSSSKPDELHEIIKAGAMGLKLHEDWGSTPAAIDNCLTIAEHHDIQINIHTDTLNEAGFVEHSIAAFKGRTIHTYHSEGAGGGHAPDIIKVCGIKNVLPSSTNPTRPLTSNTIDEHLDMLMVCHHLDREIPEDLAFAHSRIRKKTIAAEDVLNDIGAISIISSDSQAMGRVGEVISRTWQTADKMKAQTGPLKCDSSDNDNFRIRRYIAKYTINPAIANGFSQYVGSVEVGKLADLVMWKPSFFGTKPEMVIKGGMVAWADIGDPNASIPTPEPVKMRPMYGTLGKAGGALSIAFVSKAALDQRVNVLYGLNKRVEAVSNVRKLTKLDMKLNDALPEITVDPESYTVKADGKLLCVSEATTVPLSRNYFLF

On to `O=C(c1ccccc1O)n1c2ccc([N+](=O)[O-])cc2c2nnc(SCc3nc4ccccc4o3)nc21` [analog 18], for which the midpoint of inhibition, the IC50, lay at 3.8 ± 0.1 µM.

`O=C(c1cccc(Cl)c1)n1c2ccc([N+](=O)[O-])cc2c2nnc(SCc3nc4ccccc4o3)nc21` [analog 17] displayed an IC50 of 22.2 ± 0.5 µM.

Compound `Cc1ccccc1C(=O)n1c2ccc([N+](=O)[O-])cc2c2nnc(SCc3nc4ccccc4o3)nc21` [analog 15] yielded an IC50 of 36.2 ± 0.7 µM.

`O=C(c1ccc(O)cc1)n1c(CSc2nnc3c4cc([N+](=O)[O-])ccc4n(C(=O)c4ccc(O)cc4)c3n2)nc2ccccc21` [analog 12] showed an IC50 of 14.6 ± 0.3 µM.

For the compound `O=C(c1ccc(Cl)cc1)n1c2ccc([N+](=O)[O-])cc2c2nnc(SCc3nc4ccccc4o3)nc21` [analog 13], 9.7 ± 0.2 µM corresponded to half-maximal inhibition (IC50).

Compound `O=C(c1c(O)cc(O)cc1O)n1c(CSc2nnc3c4cc([N+](=O)[O-])ccc4n(C(=O)c4c(O)cc(O)cc4O)c3n2)nc2ccccc21` [analog 8] showed an IC50 of 0.2 ± 0.01 µM.

With `COc1ccc(C(=O)n2c3ccc([N+](=O)[O-])cc3c3nnc(SCc4nc5ccccc5o4)nc32)c(OC)c1` [analog 21], the IC50 was 31.8 ± 0.5 µM.

Compound `CN(C)c1ccc(C(=O)n2c(CSc3nnc4c5cc([N+](=O)[O-])ccc5n(C(=O)c5ccc(N(C)C)cc5)c4n3)nc3ccccc32)cc1` [analog 9] yielded an IC50 of 31.1 ± 0.3 µM.

`O=C(c1ccc([N+](=O)[O-])cc1)n1c(CSc2nnc3c4cc([N+](=O)[O-])ccc4n(C(=O)c4ccc([N+](=O)[O-])cc4)c3n2)nc2ccccc21` [analog 1] came in with a half-inhibitory concentration (IC50) of 17.6 ± 0.3 µM.

Compound `O=C(c1cc(O)cc(O)c1)n1c(CSc2nnc3c4cc([N+](=O)[O-])ccc4n(C(=O)c4cc(O)cc(O)c4)c3n2)nc2ccccc21` [analog 3] showed an IC50 of 2.1 ± 0.1 µM.

Take `COc1ccccc1C(=O)n1c(CSc2nnc3c4cc([N+](=O)[O-])ccc4n(C(=O)c4ccccc4OC)c3n2)nc2ccccc21` [analog 4]: the midpoint of inhibition, the IC50, lay at 32.2 ± 0.3 µM.

Take `O=C(c1cc(O)ccc1O)n1c(CSc2nnc3c4cc([N+](=O)[O-])ccc4n(C(=O)c4cc(O)ccc4O)c3n2)nc2ccccc21` [analog 6]: the IC50 turned out to be 6.7 ± 0.2 µM.

`O=C(c1cccc([N+](=O)[O-])c1)n1c2ccc([N+](=O)[O-])cc2c2nnc(SCc3nc4ccccc4o3)nc21` [analog 25] came in with an IC50 of 21.2 ± 0.4 µM.

Turning to `O=C(c1cccc([N+](=O)[O-])c1)n1c(CSc2nnc3c4cc([N+](=O)[O-])ccc4n(C(=O)c4cccc([N+](=O)[O-])c4)c3n2)nc2ccccc21` [analog 11], half-maximal inhibition (IC50) was put at 26.6 ± 0.5 µM.

`O=C(c1ccc(O)c(O)c1)n1c(CSc2nnc3c4cc([N+](=O)[O-])ccc4n(C(=O)c4ccc(O)c(O)c4)c3n2)nc2ccccc21` [analog 5] displayed an IC50 of 0.9 ± 0.01 µM.

Consider `O=C(c1ccccc1F)n1c2ccc([N+](=O)[O-])cc2c2nnc(SCc3nc4ccccc4o3)nc21` [analog 23], for which half-maximal inhibition (IC50) was put at 1.1 ± 0.01 µM and the “potency relative to standard thiourea drug (fold)” value is on record as “ten-fold-enhanced inhibitory potential”.

Compound `COC(=O)c1ccc(C(=O)n2c3ccc([N+](=O)[O-])cc3c3nnc(SCc4nc5ccccc5o4)nc32)cc1` [analog 14] showed an IC50 of 23.9 ± 0.5 µM.

The compound `O=C(c1ccccc1[N+](=O)[O-])n1c(CSc2nnc3c4cc([N+](=O)[O-])ccc4n(C(=O)c4ccccc4[N+](=O)[O-])c3n2)nc2ccccc21` [analog 10] returned an IC50 of 19.3 ± 0.4 µM.

For `COc1ccc(C(=O)n2c3ccc([N+](=O)[O-])cc3c3nnc(SCc4nc5ccccc5o4)nc32)cc1O` [analog 20], the IC50 turned out to be 2.7 ± 0.1 µM.

As for `Cc1cccc(C(=O)n2c3ccc([N+](=O)[O-])cc3c3nnc(SCc4nc5ccccc5o4)nc32)c1` [analog 19], the IC50 was found to be 34.9 ± 0.7 µM.

In the case of `O=C(c1cccc(O)c1)n1c(CSc2nnc3c4cc([N+](=O)[O-])ccc4n(C(=O)c4cccc(O)c4)c3n2)nc2ccccc21` [analog 7], the IC50 was 18.9 ± 0.4 µM.

As to `O=C(c1cccc(O)c1O)n1c2ccc([N+](=O)[O-])cc2c2nnc(SCc3nc4ccccc4o3)nc21` [analog 22], the IC50 came to 1.7 ± 0.1 µM and the “potency relative to standard thiourea drug (fold)” value is listed as “ten-fold-enhanced inhibitory potential”.

Regarding `O=C(c1cccc(F)c1)n1c2ccc([N+](=O)[O-])cc2c2nnc(SCc3nc4ccccc4o3)nc21` [analog 24], inhibition was half-maximal at 1.6 ± 0.01 µM (IC50).

With `Cc1ccc(C(=O)n2c3ccc([N+](=O)[O-])cc3c3nnc(SCc4nc5ccccc5o4)nc32)cc1` [analog 16], inhibition was half-maximal at 28.2 ± 0.5 µM (IC50).

In the case of `NC(N)=S` [Standard Thiourea, thiourea, reference compound], the IC50 (in vitro, pH 6.8, 30 °C, 100 mM urea, thiourea as standard, read-out: IC50 ± SEM against the urease enzyme) amounted to 21.9 ± 0.4 µM.

Take `O=C(c1ccc(O)cc1O)n1c(CSc2nnc3c4cc([N+](=O)[O-])ccc4n(C(=O)c4ccc(O)cc4O)c3n2)nc2ccccc21` [analog 2]: the IC50 is 1.9 ± 0.1 µM.

As a reminder, the IC50 is the concentration at which inhibition is half-maximal.
